Results on three compounds are retold here after patent US10300226B2, “Rescue inhaler” (priority 2015, dated 2019).

“And” between values parts separate entries of the source, which are not always exact repeats. Equal entries are not always repeated.

Data set [1] can be described thus: density of reference gases and prior-art heliox. The format is physicochemical.
For data set [2] the following is noted: cited from earlier work; for density: 25 degrees Celsius (dry air: no temperature given); for gas density: standard temperature and atmospheric pressure, gram molecular weight/22.4.

Consider `O=O` [oxygen], for which the density of oxygen in data set [1] (24 degree Celsius and 742 torr, d=molar mass x p/RT) amounted to 1.28 g/L. In addition, the “density of oxygen (D=P/RT)” value in data set [1] (T 273K, P 130000) amounted to 1.79 g/L. In data set [2], the density is listed as 1.429 kg/m^3 and the gas density is 1.428 g/L.

Consider `[He]` [Helium], for which, in data set [2], the density is recorded as 0.1787 kg/m^3; the gas density is 0.1785 g/L and 0.178 g/L.

With `N#N` [Example N2, nitrogen], in data set [2], the density is reported as 1.2506 kg/m^3 and the gas density is recorded as 1.25 g/L.
